Converted amounts (≈) assume the structure as drawn. Where a SMILES comes first, the peptide text is derived from it. Bridges are numbered along the chain shown (N, C = ends). [ ]: non-standard residue; d: D form. The star is where a group is joined. dPhe(4-NO2) = N[C@H](Cc1ccc([N+](=O)[O-])cc1)C(=O)O; dPhe(4-CF3) = N[C@H](Cc1ccc(C(F)(F)F)cc1)C(=O)O; Benzoyl(4-OPh) = O=C(c1ccc(Oc2ccccc2)cc1)*; dPhe(3-Cl) = N[C@H](Cc1cccc(Cl)c1)C(=O)O; dPhe(4-Cl) = N[C@H](Cc1ccc(Cl)cc1)C(=O)O; dPhe(2-Cl) = N[C@H](Cc1ccccc1Cl)C(=O)O; X7 = Cc1ccc(Oc2ccc(C(=O)*)cc2)cc1; X2 = CC[C@H](C)CCCCC(=O)*; Dab = NCC[C@H](N)C(=O)O
How the values were obtained:
Format in all cases: cell-based
[1] = tested on: Klebsiella pneumoniae ATCC BAA-2146 (NDM-1); assay: Antibacterial activity, MIC by dish double dilution method; conditions: ATCC BAA-2146
Procedure: (§1) The minimum inhibitory concentration (MIC) was determined by means of dish double dilution method using a Multipoint inoculator according to the CLSI recommended method. The compounds of the present invention (for example, the compounds prepared in the Embodiments) and the reference substances were diluted twice each time with the broth into various desired concentrations, and appropriate amounts were added to the dishes. Agar medium is melted, and then quantitatively injected into the dish containing the drug solution, and mixed. The final concentrations of the compounds of the invention (e.g., the compounds prepared in the Embodiments) and the controls were 0.03, 0.06, 0.125, 0.25 . . . 128 μg/mL, respectively. The test bacteria were cultured overnight with nutrient broth, brain heart infusion or HTM broth. During the tests, the bacterial solutions were diluted appropriately, and the test bacteria (inoculation amount 10^4 CFU/dot) were inoculated on the surface of the drug-containing agar by a multi-point inoculator. After drying, the bacterial was incubated for 18 to 24 hours at 35° C., the results were observed, the minimum concentrations of the compounds of the present invention (for example, the compounds prepared in the Embodiments) and the controls contained in the dishes with no growth of colonies were MICs.
(§2) The strains used in the antibacterial activity experiments were from the American Type Culture Collection (ATCC) and clinical isolates.
(§3) The strains used for the experiments on antibacterial activity included Escherichia coli ATCC 25922, Klebsiella pneumoniae ATCC BAA-2146 (NDM-1), Pseudomonas aeruginosa ATCC 27853, Acinetobacter baumannii ATCC 19606 and Staphylococcus epidermidis ATCC 12228.
(§4) Tested samples: polymyxin derivatives prepared according to the technical scheme of the present invention;
(§5) Controls: polymyxin B sulfate and colistin (polymyxin E sulfate).

[2] = tested on: Escherichia coli ATCC 25922; conditions: ATCC 25922
Procedure: as §1, §2, §3, §4, §5

[3] = tested on: Staphylococcus epidermidis ATCC 12228; conditions: ATCC 12228
Procedure: as §1, §2, §3, §4, §5

[4] = tested on: Pseudomonas aeruginosa ATCC 27853; conditions: ATCC 27853
Procedure: as §1, §2, §3, §4, §5

[5] = tested on: Acinetobacter baumannii ATCC 19606; conditions: ATCC 19606
Procedure: as §1, §2, §3, §4, §5

SMILES: CC(C)C[C@@H]1NC(=O)[C@@H](Cc2ccccc2)NC(=O)[C@H](CCN)NC(=O)[C@@H](NC(=O)[C@H](CCN)NC(=O)[C@@H](NC(=O)[C@H](CCN)NC(=O)c2ccc(Oc3ccccc3)cc2)[C@@H](C)O)CCNC(=O)[C@H]([C@@H](C)O)NC(=O)[C@H](CCN)NC(=O)[C@H](CCN)NC1=O [Compound 8, 4-(phenoxy)benzoyl-Dab-Thr-Dab-ring(4-10)[Dab-Dab-D-Phe-Lue-Dab-Dab-Thr]] ({Benzoyl(4-OPh)}-[Dab]T[Dab][Dab][Dab][dF]L[Dab][Dab]T; lactam 4-C)
- MIC K. pneumoniae ATCC BAA-2146 (NDM-1) [1]: 4 µg/mL (≈ 3.18 µM)
- MIC E. coli ATCC 25922 [2]: 4 µg/mL (≈ 3.18 µM)
- MIC S. epidermidis ATCC 12228 [3]: 16 µg/mL (≈ 12.7 µM)
- MIC P. aeruginosa ATCC 27853 [4]: 8 µg/mL (≈ 6.35 µM)
- MIC A. baumannii ATCC 19606 [5]: 2 µg/mL (≈ 1.59 µM)

SMILES: Cc1ccc(Oc2ccc(C(=O)N[C@@H](CCN)C(=O)N[C@H](C(=O)N[C@@H](CCN)C(=O)N[C@H]3CCNC(=O)[C@H]([C@@H](C)O)NC(=O)[C@H](CCN)NC(=O)[C@H](CCN)NC(=O)[C@H](CC(C)C)NC(=O)[C@@H](Cc4ccccc4)NC(=O)[C@H](CCN)NC3=O)[C@@H](C)O)cc2)cc1 [Compound 9, 4-(p-methylphenoxy)benzoyl-Dab-Thr-Dab-ring(4-10)[Dab-Dab-D-Phe-Lue-Dab-Dab-Thr]] (X7-[Dab]T[Dab][Dab][Dab][dF]L[Dab][Dab]T; lactam 4-C)
- MIC K. pneumoniae ATCC BAA-2146 (NDM-1) [1]: 4 µg/mL (≈ 3.14 µM)
- MIC E. coli ATCC 25922 [2]: 4 µg/mL (≈ 3.14 µM)
- MIC S. epidermidis ATCC 12228 [3]: 8 µg/mL (≈ 6.28 µM)
- MIC P. aeruginosa ATCC 27853 [4]: 4 µg/mL (≈ 3.14 µM)
- MIC A. baumannii ATCC 19606 [5]: 4 µg/mL (≈ 3.14 µM)

SMILES: CC[C@H](C)CCCCC(=O)N[C@@H](CCN)C(=O)N[C@H](C(=O)N[C@@H](CCN)C(=O)N[C@H]1CCNC(=O)[C@H]([C@@H](C)O)NC(=O)[C@H](CCN)NC(=O)[C@H](CCN)NC(=O)[C@H](CC(C)C)NC(=O)[C@@H](Cc2ccc(O)cc2)NC(=O)[C@H](CCN)NC1=O)[C@@H](C)O [Compound 12, (S)-6-methyloctanoyl-Dab-Thr-Dab-ring(4-10)[Dab-Dab-D-Tyr-Lue-Dab-Dab-Thr]] (X2-[Dab]T[Dab][Dab][Dab][dY]L[Dab][Dab]T; lactam 4-C)
- MIC K. pneumoniae ATCC BAA-2146 (NDM-1) [1]: 2 µg/mL (≈ 1.64 µM)
- MIC E. coli ATCC 25922 [2]: 2 µg/mL (≈ 1.64 µM)
- MIC S. epidermidis ATCC 12228 [3]: 128 µg/mL (≈ 105 µM)
- MIC P. aeruginosa ATCC 27853 [4]: 1 µg/mL (≈ 0.82 µM)
- MIC A. baumannii ATCC 19606 [5]: 2 µg/mL (≈ 1.64 µM)

SMILES: CC[C@H](C)CCCCC(=O)N[C@@H](CCN)C(=O)N[C@H](C(=O)N[C@@H](CCN)C(=O)N[C@H]1CCNC(=O)[C@H]([C@@H](C)O)NC(=O)[C@H](CCN)NC(=O)[C@H](CCN)NC(=O)[C@H](CC(C)C)NC(=O)[C@@H](Cc2ccc([N+](=O)[O-])cc2)NC(=O)[C@H](CCN)NC1=O)[C@@H](C)O [Compound 14, (S)-6-methyloctanoyl-Dab-Thr-Dab-ring(4-10)[Dab-Dab-D-Phe(4-NO2)-Lue-Dab-Dab-Thr]] (X2-[Dab]T[Dab][Dab][Dab][dPhe(4-NO2)]L[Dab][Dab]T; lactam 4-C)
- MIC K. pneumoniae ATCC BAA-2146 (NDM-1) [1]: 2 µg/mL (≈ 1.6 µM)
- MIC E. coli ATCC 25922 [2]: 1 µg/mL (≈ 0.801 µM)
- MIC S. epidermidis ATCC 12228 [3]: 8 µg/mL (≈ 6.41 µM)
- MIC P. aeruginosa ATCC 27853 [4]: 2 µg/mL (≈ 1.6 µM)
- MIC A. baumannii ATCC 19606 [5]: 1 µg/mL (≈ 0.801 µM)

SMILES: CC[C@H](C)CCCCC(=O)N[C@@H](CCN)C(=O)N[C@H](C(=O)N[C@@H](CCN)C(=O)N[C@H]1CCNC(=O)[C@H]([C@@H](C)O)NC(=O)[C@H](CCN)NC(=O)[C@H](CCN)NC(=O)[C@H](CC(C)C)NC(=O)[C@@H](Cc2ccc(Cl)cc2)NC(=O)[C@H](CCN)NC1=O)[C@@H](C)O [Compound 16, (S)-6-methyloctanoyl-Dab-Thr-Dab-ring(4-10)[Dab-Dab-D-Phe(4-Cl)-Lue-Dab-Dab-Thr]] (X2-[Dab]T[Dab][Dab][Dab][dPhe(4-Cl)]L[Dab][Dab]T; lactam 4-C)
- MIC K. pneumoniae ATCC BAA-2146 (NDM-1) [1]: 2 µg/mL (≈ 1.62 µM)
- MIC E. coli ATCC 25922 [2]: 1 µg/mL (≈ 0.808 µM)
- MIC S. epidermidis ATCC 12228 [3]: 16 µg/mL (≈ 12.9 µM)
- MIC P. aeruginosa ATCC 27853 [4]: 2 µg/mL (≈ 1.62 µM)
- MIC A. baumannii ATCC 19606 [5]: 1 µg/mL (≈ 0.808 µM)

SMILES: CC[C@H](C)CCCCC(=O)N[C@@H](CCN)C(=O)N[C@H](C(=O)N[C@@H](CCN)C(=O)N[C@H]1CCNC(=O)[C@H]([C@@H](C)O)NC(=O)[C@H](CCN)NC(=O)[C@H](CCN)NC(=O)[C@H](CC(C)C)NC(=O)[C@@H](Cc2ccccc2Cl)NC(=O)[C@H](CCN)NC1=O)[C@@H](C)O [Compound 18, (S)-6-methyloctanoyl-Dab-Thr-Dab-ring(4-10)[Dab-Dab-D-Phe(2-Cl)-Lue-Dab-Dab-Thr]] (X2-[Dab]T[Dab][Dab][Dab][dPhe(2-Cl)]L[Dab][Dab]T; lactam 4-C)
- MIC K. pneumoniae ATCC BAA-2146 (NDM-1) [1]: 2 µg/mL (≈ 1.62 µM)
- MIC E. coli ATCC 25922 [2]: 1 µg/mL (≈ 0.808 µM)
- MIC S. epidermidis ATCC 12228 [3]: 4 µg/mL (≈ 3.23 µM)
- MIC P. aeruginosa ATCC 27853 [4]: 2 µg/mL (≈ 1.62 µM)
- MIC A. baumannii ATCC 19606 [5]: 0.5 µg/mL (≈ 0.404 µM)

SMILES: CC[C@H](C)CCCCC(=O)N[C@@H](CCN)C(=O)N[C@H](C(=O)N[C@@H](CCN)C(=O)N[C@H]1CCNC(=O)[C@H]([C@@H](C)O)NC(=O)[C@H](CCN)NC(=O)[C@H](CCN)NC(=O)[C@H](CC(C)C)NC(=O)[C@@H](Cc2cccc(Cl)c2)NC(=O)[C@H](CCN)NC1=O)[C@@H](C)O [Compound 19, (S)-6-methyloctanoyl-Dab-Thr-Dab-ring(4-10)[Dab-Dab-D-Phe(3-Cl)-Lue-Dab-Dab-Thr]] (X2-[Dab]T[Dab][Dab][Dab][dPhe(3-Cl)]L[Dab][Dab]T; lactam 4-C)
- MIC K. pneumoniae ATCC BAA-2146 (NDM-1) [1]: 2 µg/mL (≈ 1.62 µM)
- MIC E. coli ATCC 25922 [2]: 1 µg/mL (≈ 0.808 µM)
- MIC S. epidermidis ATCC 12228 [3]: 4 µg/mL (≈ 3.23 µM)
- MIC P. aeruginosa ATCC 27853 [4]: 2 µg/mL (≈ 1.62 µM)
- MIC A. baumannii ATCC 19606 [5]: 0.5 µg/mL (≈ 0.404 µM)

SMILES: CC[C@H](C)CCCCC(=O)N[C@@H](CCN)C(=O)N[C@H](C(=O)N[C@@H](CCN)C(=O)N[C@H]1CCNC(=O)[C@H]([C@@H](C)O)NC(=O)[C@H](CCN)NC(=O)[C@H](CCN)NC(=O)[C@H](CC(C)C)NC(=O)[C@@H](Cc2ccc(C(F)(F)F)cc2)NC(=O)[C@H](CCN)NC1=O)[C@@H](C)O [Compound 23, (S)-6-methyloctanoyl-Dab-Thr-Dab-ring(4-10)[Dab-Dab-D-Phe(4-CF3)-Lue-Dab-Dab-Thr]] (X2-[Dab]T[Dab][Dab][Dab][dPhe(4-CF3)]L[Dab][Dab]T; lactam 4-C)
- MIC K. pneumoniae ATCC BAA-2146 (NDM-1) [1]: 2 µg/mL (≈ 1.57 µM)
- MIC E. coli ATCC 25922 [2]: 1 µg/mL (≈ 0.786 µM)
- MIC S. epidermidis ATCC 12228 [3]: 8 µg/mL (≈ 6.29 µM)
- MIC P. aeruginosa ATCC 27853 [4]: 2 µg/mL (≈ 1.57 µM)
- MIC A. baumannii ATCC 19606 [5]: 1 µg/mL (≈ 0.786 µM)

SMILES: CC[C@H](C)CCCCC(=O)N[C@@H](CCN)C(=O)N[C@H](C(=O)N[C@@H](CCN)C(=O)N[C@H]1CCNC(=O)[C@H]([C@@H](C)O)NC(=O)[C@H](CCN)NC(=O)[C@H](CCN)NC(=O)[C@H](CC(C)C)NC(=O)[C@@H](Cc2ccc(OC)cc2)NC(=O)[C@H](CCN)NC1=O)[C@@H](C)O [Compound 24, (S)-6-methyloctanoyl-Dab-Thr-Dab-ring(4-10)[Dab-Dab-D-Phe(4-OCH3)-Lue-Dab-Dab-Thr]] (X2-[Dab]T[Dab][Dab][Dab][dY](Me)L[Dab][Dab]T; lactam 4-C)
- MIC K. pneumoniae ATCC BAA-2146 (NDM-1) [1]: 2 µg/mL (≈ 1.62 µM)
- MIC E. coli ATCC 25922 [2]: 1 µg/mL (≈ 0.811 µM)
- MIC S. epidermidis ATCC 12228 [3]: 16 µg/mL (≈ 13 µM)
- MIC P. aeruginosa ATCC 27853 [4]: 2 µg/mL (≈ 1.62 µM)
- MIC A. baumannii ATCC 19606 [5]: 1 µg/mL (≈ 0.811 µM)

From patent US20190315806A1, “POLYMYXIN DERIVATIVE, PREPARATION METHOD AND APPLICATION THEREOF” (priority 2016, published 2019)
